Experimental data from US20230137849A1, “USE OF A COMPOUND OF THE DIURETICS CLASS FOR TREATING CANCER” (AZELEAD, priority 2017, published 2023).
Where two headings read alike, the source gives them in different places.

Columns and labels:
zebrafish embryo = details: in vivo
Method: The toxicity study is carried out over 72 hours. The embryos are treated at 25 hpf with the doses used for the test of chemical compounds of each of the compounds, in a 96-well plate, in a final volume of 100 μl of the embryonic growth medium. The embryos are incubated 72 h at 28° C. The medium is changed every 24 hours. The survival rate of embryos and the appearance of developmental defects are analyzed daily.
At the same time, we analyzed the toxicity of althiazide after balancing with a solution containing althiazide at concentrations of 1 μM, 10 μM, 100 μM, 1000 μM for 24, 48 and 72 hours. The toxicity study was based on analysis of the percentage viability of the embryos after treatment. At concentrations of 1 μM, 10 μM and 100 μM, althiazide causes no toxicity even after 72 hours of treatment. A 50% toxicity is observed after treatment for 24 hours, the althiazide at the concentration of 1 mM.

4T1 cells = format: cell-based, mouse; details: FIG. 8
Method: The cytotoxicity tests are carried out in cell culture in 96-well plates, on the 4T1 cell line. The cells are maintained in a DMEM culture medium supplemented with 10% fetal calf serum (control condition) or placed in the presence of an MTT solution (3-(4,5-dimethylthiazol-2-yl)-2,5-diphenyl tetrazolium bromide) at 1 mg/ml in DMEM medium supplemented with 10% fetal calf serum (100 μl per well). The cells are incubated at 37° C. and 5% CO2 for 4 hours. The reaction is stopped by the addition of 100 μl of a solution containing 10% of SDS and 0.01 M of HCl. The cells are placed in an incubator at 37° C. and 5% CO2 for 2 hours. The absorbance is measured between 570 and 590 nm. The negative control is performed on a well without cells, containing 200 μl of a 1 mg/ml solution of MTT diluted in DMEM culture medium supplemented with 10% fetal calf serum. The average of the measurements obtained is compared with the control wells: (average value of the compounds treated/average value of the controls)*100=% of the average value.
The 4T1 cells are derived from tumors of the mammary gland in mice.
In order to study the cytotoxic effects of althiazide in vitro, we analyze the cell death induced by treatment with althiazide by tetrazolium salt labeling MTT (3-(4,5-dimethylthiazol-2-yl)-2,5-diphenyltetrazolium bromide) on 4T1 cells. The amount of living cells in the well is assayed by spectrometry. The results are compared with those obtained after treatment with the control solution (FIG. 8). In this test, we observe a very low mortality of cells after treatment with althiazide (80% of living cells at the highest dose 100 μM). Cells treated with dasatinib have a much higher mortality rate, at much lower doses (80% live cells at the lowest 10 nM dose and 20% live cells at 100 μM).

## Cc1nc(Nc2ncc(C(=O)Nc3c(C)cccc3Cl)s2)cc(N2CCN(CCO)CC2)n1 [dasatinib]
Zebrafish embryo
  toxicity on the embryo in comparison with althiazide doses: very high toxicity
4T1 cells; highest dose 100 μM
  living cells (MTT): 20%
4T1 cells; lowest dose 10 nM
  living cells (MTT): 80%
